# Experimental data as given in US20230157952A1, “METHOD FOR IMPROVING THE STABILITY OF A PHARMACEUTICAL COMPOSITION COMPRISING A HIGH PENETRATION DRUG, AND THE PHARMACEUTICAL COMPOSITION OBTAINED THEREFROM” (Techfields Inc., priority 2020, published 2023).
# Non-standard residues stand in square brackets, D forms with d. *: point of attachment. Arg(NO2) = N=C(NCCC[C@H](N)C(=O)O)N[N+](=O)[O-]; OiPr = CC(C)O*
# Legend:
# [1] = Stability of the pure HPDs (dry solid) at 25° C./RH 60%; format: physicochemical; settings: for Purity at 3 month / Purity at 6 month / Purity at 9 month / Purity at 12 month / Purity at 18 month / Purity at 24 month / Purity at Day 0: pure HPD at 25° C./RH 60%; for Stability of the pure powder: room temperature (25° C./RH 60%); for Purity: pure HPD, 25° C./RH 60%
# [2] = Effect of temperature (and pH) on the stability of the solution (purity); format: physicochemical; settings: for Purity (%) at day 30 (60° C.) / Purity (%) at day 90 (60° C.) / Purity (%) at day 180 (60° C.) / Purity (%) at day 360 (60° C.) / Purity(%) at day 0 / Purity(%) at day 30 (5° C.) / Purity(%) at day 30 (25° C.) / Purity(%) at day 30 (40° C.) / Purity(%) at day 90 (5° C.) / Purity(%) at day 90 (25° C.) / Purity(%) at day 90 (40° C.) / Purity(%) at day 180 (5° C.) / Purity(%) at day 180 (25° C.) / Purity(%) at day 180 (40° C.) / Purity(%) at day 360 (5° C.) / Purity(%) at day 360 (25° C.) / Purity(%) at day 360 (40° C.): 5% solution with 1 equivalent sodium acetate in 25% ethanol, pH 4.49-4.51; for Stability of the solution at a temperature higher than 40° C. and a pH lower than 3 or greater than 6: 7% solution in water
# [3] = Effect of pH value on the stability of the solution (purity); format: physicochemical; settings: for pH at which the solution is stable: 5% solution in 25% ethanol at 25° C.; for Time the solution can be stored at room temperature: 5% solution in 25% ethanol, pH 3-6; for Purity(%) from day 0-28 / Purity(%) from day 0-14: 25° C.
# [4] = Effect of concentration on the stability of the solution (purity over time); settings: in water at 25° C.
molecule,measurement,setting,value
H-Val-Pro-Gly-Pro-Arg(NO2)—OCH(CH3)2•HCl (H-VPGP[Arg(NO2)]-OiPr; also: HCl salt),Purity at 3 month,[1]; in % (unit assumed),98.8 ± 0.2
same,Purity at 6 month,[1]; in % (unit assumed),98.6 ± 0.2
same,Purity at 9 month,[1]; in % (unit assumed),98.5 ± 0.2
same,Purity at 12 month,[1]; in % (unit assumed),98.4 ± 0.3
same,Purity at 18 month,[1]; in % (unit assumed),98.2 ± 0.3
same,Purity at 24 month,[1]; in % (unit assumed),98.2 ± 0.2
same,Purity at Day 0,[1]; in % (unit assumed),98.7 ± 0.2
same,Stability of the pure powder,[1],very stable
same,Purity (%) at day 30 (60° C.),[2],32.4 ± 0.4%
same,Purity (%) at day 90 (60° C.),[2],0%
same,Purity (%) at day 180 (60° C.),[2],0%
same,Purity (%) at day 360 (60° C.),[2],0%
same,Purity(%) at day 0,[2],98.7 ± 0.2%
same,Purity(%) at day 30 (5° C.),[2],98.5 ± 0.3%
same,Purity(%) at day 30 (25° C.),[2],97.7 ± 0.2%
same,Purity(%) at day 30 (40° C.),[2],71.6 ± 0.2%
same,Purity(%) at day 90 (5° C.),[2],98.4 ± 0.3%
same,Purity(%) at day 90 (25° C.),[2],97.0 ± 0.3%
same,Purity(%) at day 90 (40° C.),[2],32.7 ± 0.3%
same,Purity(%) at day 180 (5° C.),[2],97.8 ± 0.3%
same,Purity(%) at day 180 (25° C.),[2],95.1 ± 0.3%
same,Purity(%) at day 180 (40° C.),[2],12.2 ± 0.3%
same,Purity(%) at day 360 (5° C.),[2],97.3 ± 0.3%
same,Purity(%) at day 360 (25° C.),[2],92.2 ± 0.2%
same,Purity(%) at day 360 (40° C.),[2],0%
same,pH at which the solution is stable,[3],3-6
same,Time the solution can be stored at room temperature,[3],about 1 year
"CCN(CC)CCOC(=O)C(C)c1ccc(CC(C)C)cc1.Cl (racemic) [C-4, 2-(diethylamino)ethyl (R,S)-2-(p-isobutylphenyl)propionate•HCl salt]",Purity,"[1]; 3 month, listed as C-1-1",99.9 ± 0.2
same,Purity,"[1]; 6 month, listed as C-1-1",99.8 ± 0.2
same,Purity,"[1]; 9 month, listed as C-1-1",99.8 ± 0.3
same,Purity,[1]; 12 month,98.1 ± 0.3
same,Purity,"[1]; 12 month, listed as C-1-1",99.5 ± 0.3
same,Purity,[1]; 18 month,98.0 ± 0.1
same,Purity,"[1]; 18 month, listed as C-1-1",99.8 ± 0.3
same,Purity,[1]; 24 month,97.9 ± 0.3
same,Purity,"[1]; 24 month, listed as C-1-1",99.7 ± 0.4
same,Purity,"[1]; Day 0, listed as C-1-1",99.8 ± 0.1
same,Stability of the solution at a temperature higher than 40° C. and a pH lower than 3 or greater than 6,[2],not stable
same,Purity(%) from day 0-28,"[3]; day 28, pH 1.0, 7% in 25% ethanol",69.1 ± 0.2%
same,Purity(%) from day 0-28,"[3]; day 28, pH 2.0, 7% in 25% ethanol",80.8 ± 0.4%
same,Purity(%) from day 0-28,"[3]; day 28, pH 3.0, 7% in 25% ethanol",92.5 ± 0.3%
same,Purity(%) from day 0-28,"[3]; day 28, pH 3.7, 7% in 25% ethanol",97.2 ± 0.4%
same,Purity(%) from day 0-28,"[3]; day 28, pH 4.6, 7% in 25% ethanol",97.3 ± 0.3%
same,Purity(%) from day 0-28,"[3]; day 28, pH 5.0, 7% in 25% ethanol",94.3 ± 0.2%
same,Purity(%) from day 0-28,"[3]; day 28, pH 6.0, 7% in 25% ethanol",89.9 ± 0.3%
same,Purity(%) from day 0-28,"[3]; day 28, pH 7.0, 7% in 25% ethanol",52.8 ± 0.4%
same,Purity(%) from day 0-28,"[3]; day 28, pH 8.0, 7% in 25% ethanol",35.3 ± 0.3%
"CCN(CC)CCOC(=O)[C@H](C)c1ccc2cc(OC)ccc2c1.Cl (racemic) [2-(diethylamino)ethyl (R,S)-2-(6-methoxy-2-naphthyl)propionate•HCl]",Purity,"[1]; 3 month, listed as A-1-1",98.6 ± 0.1
same,Purity,"[1]; 6 month, listed as A-1-1",98.8 ± 0.1
same,Purity,"[1]; Day 0, listed as A-1-1",98.8 ± 0.2
same,Purity at Day 3,[4]; 0.01 wt %,79.6%
same,Purity at Day 7,[4]; 0.01 wt %,73.4%
same,Purity at Day 14,[4]; 0.01 wt %,68.7%
same,Purity at Day 21,[4]; 0.01 wt %,64.5%
same,Purity at Day 28,[4]; 0.01 wt %,61.4%
same,Purity at hr 24,[4]; 0.01 wt %,91.7%
same,Purity at Day 7,[4]; 0.1 wt %,97.2%
same,Purity at Day 14,[4]; 0.1 wt %,96.1%
same,Purity at Day 21,[4]; 0.1 wt %,95.4%
same,Purity at Day 28,[4]; 0.1 wt %,94.1%
same,Purity at Day 14,[4]; 1 wt %,97.4%
same,Purity at Day 21,[4]; 1 wt %,96.9%
same,Purity at Day 28,[4]; 1 wt %,96.4%
same,Purity at Day 21,[4]; 3 wt %,97.6%
same,Purity at Day 28,[4]; 3 wt %,97.1%
same,Purity at Day 28,[4]; 5 wt %,97.5%
same,Purity at Day 21,[4]; 8 wt %,97.5%
same,Purity at Day 28,[4]; 8 wt %,97.6%
same,Purity at Day 21,[4]; 10 wt %,97.4%
same,Purity at Day 28,[4]; 10 wt %,97.6%
same,Purity at Day 21,[4]; 15 wt %,97.5%
same,Purity at Day 28,[4]; 15 wt %,97.6%
same,Purity at Day 21,[4]; 20 wt %,97.4%
same,Purity at Day 28,[4]; 20 wt %,97.6%
same,Stability when the concentration is 0.1% or lower,[4],not stable
same,Stability of the solution at a temperature higher than 40° C. and a pH lower than 3 or greater than 6,[2],not stable
same,Purity(%) from day 0-28,"[3]; day 28, pH 1.0, 7% solution in water",68.9 ± 0.3%
same,Purity(%) from day 0-28,"[3]; day 28, pH 2.0, 7% solution in water",80.9 ± 0.4%
same,Purity(%) from day 0-28,"[3]; day 28, pH 3.0, 7% solution in water",90.3 ± 0.3%
same,Purity(%) from day 0-28,"[3]; day 28, pH 3.7, 7% solution in water",97.2 ± 0.2%
same,Purity(%) from day 0-28,"[3]; day 28, pH 5.0, 7% solution in water",96.3 ± 0.2%
same,Purity(%) from day 0-28,"[3]; day 28, pH 6.0, 7% solution in water",89.9 ± 0.3%
same,Purity(%) from day 0-28,"[3]; day 28, pH 7.0, 7% solution in water",65.8 ± 0.3%
same,Purity(%) from day 0-28,"[3]; day 28, pH 8.0, 7% solution in water",45.8 ± 0.4%
H-Val-Pro-Asp[OCH(CH3)2]-Pro-Arg(NO2)—OCH(CH3)2•HCl [T-3],Purity at 3 month,[1],99.0 ± 0.2
same,Purity at 6 month,[1],99.0 ± 0.2
same,Purity at 9 month,[1],98.8 ± 0.2
same,Purity at 12 month,[1],98.7 ± 0.0
same,Purity at 18 month,[1],98.6 ± 0.0
same,Purity at 24 month,[1],98.5 ± 0.2
same,Purity at Day 0,[1],99.1 ± 0.2
same,Stability of the pure powder,[1],very stable
same,Purity (%) at day 30 (60° C.),[2],33.2 ± 0.3%
same,Purity (%) at day 90 (60° C.),[2],0%
same,Purity (%) at day 180 (60° C.),[2],0%
same,Purity (%) at day 360 (60° C.),[2],0%
same,Purity(%) at day 0,[2],99.1 ± 0.1%
same,Purity(%) at day 30 (5° C.),[2],98.9 ± 0.2%
same,Purity(%) at day 30 (25° C.),[2],97.9 ± 0.3%
same,Purity(%) at day 30 (40° C.),[2],71.9 ± 0.2%
same,Purity(%) at day 90 (5° C.),[2],98.6 ± 0.3%
same,Purity(%) at day 90 (25° C.),[2],97.2 ± 0.3%
same,Purity(%) at day 90 (40° C.),[2],34.2 ± 0.3%
same,Purity(%) at day 180 (5° C.),[2],97.9 ± 0.2%
same,Purity(%) at day 180 (25° C.),[2],95.2 ± 0.3%
same,Purity(%) at day 180 (40° C.),[2],13.5 ± 0.3%
same,Purity(%) at day 360 (5° C.),[2],97.4 ± 0.3%
same,Purity(%) at day 360 (25° C.),[2],92.5 ± 0.4%
same,Purity(%) at day 360 (40° C.),[2],0%
same,pH at which the solution is stable,[3],3-6
same,Time the solution can be stored at room temperature,[3],about 1 year
"CC(O)C(=O)O.CCN(CC)CCOC(=O)c1ccccc1OC(C)=O [A-3, 2-(diethylamino)ethyl acetylsalicylate•lactic acid salt]",Purity,[1]; 12 month,97.9 ± 0.2
same,Purity,[1]; 18 month,97.3 ± 0.1
same,Purity,[1]; 24 month,96.8 ± 0.2
same,Purity(%) from day 0-14,"[3]; day 14, pH 1.0, 7% in water",57.9 ± 0.4%
same,Purity(%) from day 0-14,"[3]; day 14, pH 2.0, 7% in water",77.0 ± 0.4%
same,Purity(%) from day 0-14,"[3]; day 14, pH 3.0, 7% in water",88.7 ± 0.2%
same,Purity(%) from day 0-14,"[3]; day 14, pH 3.7, 7% in water",93.1 ± 0.3%
same,Purity(%) from day 0-14,"[3]; day 14, pH 4.0, 7% in water",94.1 ± 0.4%
same,Purity(%) from day 0-14,"[3]; day 14, pH 4.3, 7% in water",94.4 ± 0.2%
same,Purity(%) from day 0-14,"[3]; day 14, pH 4.6, 7% in water",94.1 ± 0.2%
same,Purity(%) from day 0-14,"[3]; day 14, pH 5.0, 7% in water",85.6 ± 0.4%
same,Purity(%) from day 0-14,"[3]; day 14, pH 6.0, 7% in water",78.3 ± 0.3%
same,Purity(%) from day 0-14,"[3]; day 14, pH 7.0, 7% in water",55.1 ± 0.3%
same,Purity(%) from day 0-14,"[3]; day 14, pH 8.0, 7% in water",15.0 ± 0.4%
H-Tyr-Gly-Gly-Phe-Met-OCH(CH3)2.HCl [U-2],Purity,[1]; 3 month,98.9 ± 0.3
same,Purity,[1]; 6 month,98.6 ± 0.2
same,Purity,[1]; 9 month,98.6 ± 0.3
same,Purity,[1]; 12 month,98.5 ± 0.2
same,Purity,[1]; 18 month,98.5 ± 0.2
same,Purity,[1]; 24 month,98.4 ± 0.2
same,Purity,[1]; Day 0,98.9 ± 0.1
same,Stability of the pure powder,[1],very stable
same,pH at which the solution is stable,[3],3-6
same,Time the solution can be stored at room temperature,[3],about 1 year
